In paper PMC12116762, “Topobexin targets the Topoisomerase II ATPase domain for beta isoform-selective inhibition and anthracycline cardioprotection” (Nature Communications, 2025):
Where “and” joins values, the source holds several entries; their conditions need not be identical. Equal entries are not always repeated.

How the values were obtained:
γH2AX = assay: Acute DAU-induced DNA damage (γH2AX) in rabbit LV myocardium; format: in vivo; parameters: γH2AX in LV myocardium: scale not given here; details: for γH2AX in LV myocardium: individual animals
Procedure: For the determination of γH2aX protein in in vivo experiments, pulverized rabbit LV samples were homogenized in commercial 1× SDS Lysis Buffer (PhosphoSolutions) with phosphatase and protease inhibitor solutions (Thermo Fisher Scientific and Roche, respectively) and boiled at 95 °C for 10 min. Protein concentrations were assessed by the BCA Protein Assay Kit (Sigma-Aldrich), and 85 μg of protein were loaded into Mini-PROTEAN 12% TGX Precast Stain-free Gel (Bio-Rad). After separation, the proteins were transferred onto a nitrocellulose membrane using a Trans-Blot Turbo System (all Bio-Rad). Mouse monoclonal anti-γH2AX (1:800, ab26350, Abcam) was used as the primary antibody, and horseradish peroxidase-conjugated goat anti-mouse immunoglobulin (1:1000, P044701, DAKO) was used as the secondary antibody. The BM Chemiluminescence Blotting Substrate (Roche) and Fusion Solo S coupled with CCD camera (Vilber) were used for signal detection.
Rabbits (n = 24) were divided equally into four groups (n = 6 in each) receiving a single dose as follows: DAU (3 mg/kg, i.v. bolus), saline (1 ml/kg, i.v., the control group), topobexin (9) alone (10 mg/kg, prepared and administered as describe above in the pharmacokinetic study, i.e., in 20 min i.v. infusion) and the combination group (topobexin (9) 10 mg/kg via 20 min i.v. infusion followed by DAU 3 mg/kg as i.v. bolus into the contralateral ear 40 min after the end of topobexin (9) infusion). Based on preliminary data, the experiment was completed 90 min after administration of DAU or saline. The heart was excised and γH2AX as a marker of DNA damage was determined in myocardial homogenates using Western blotting as described above.

[1] = Plasma pharmacokinetics in rabbits (LC-MS/MS); format: in vivo, rabbit
Procedure: Six rabbits were used to determine the plasma pharmacokinetics of topobexin (9). The compound was used as a dihydrochloride and was dissolved right before administration in sterile saline (10 mg of free base/ml); pH was optimized using NaOH and the solution was filtered through an antimicrobial filter (0.22 µm porosity, Carl Roth GmbH + Co. KG, Germany). The drug was administered i.v. using marginal ear vein at 10 mg/kg (counted as a free base) in a 20 min infusion. The dose, route of administration, and timing of infusion were determined based on preliminary pharmacokinetic experiments. Blood for pharmacokinetic analysis was collected from the central artery in the contralateral ear before drug administration (blank) and in preselected time intervals after drug administration (5 min to 10 h). Blood was collected in BD Vacutainer tubes (BD Biosciences, Plymouth, UK) containing lithium heparin. All samples were immediately centrifuged (5 min, 3000 × g), plasma was harvested and frozen immediately in liquid nitrogen and the samples were stored at -80 °C until analysis.
The concentration of topobexin (9) was determined in plasma samples using an analytical method developed and validated for this purpose. Briefly, rabbit plasma (50 μl) was spiked with internal standard (compound 14), precipitated with ice-cold acetonitrile (200 μl), vortexed (30 s), and centrifuged (10 min, 9520 × g, 4 °C). The resulting supernatant was filtered through a 0.45 μm porosity filter (Milex – Hv, Merck Milipore, Darmstadt, Germany) and analyzed using UHPLC-MS. Agilent 1290 Infinity II LC with Triple Quad LC/MS (6400 series), a Jet Stream Electrospray and Mass Hunter software (Agilent, Santa Clara, CA, USA) were used for the analyzes and data treatment, respectively. Chromatographic separation was achieved on the Zorbax Eclipse Plus C18 column (50 × 2.1 mm, 1.8 μm, […], Dublin, Ireland). The mobile phase composed of part A (0.0025% formic acid) and part B (acetonitrile) was mixed in the following gradient: 0–1 min (10% B), 1–3 (10–60% B), 3–3.5 min (60% B), 3.51–5 min (80% B), 5.01–6 min (10% B). The flow rate of mobile phase was 0.3 mL/min and 2 μL of the sample were injected onto the column. The linearity of the method was verified within the concentration range of 1 to 1000 nM topobexin (9) in rabbit plasma.

YFP-TOP2A = molecular target: T1, YFP-TOP2A (Homo sapiens, UniProt P11388); assay: FRAP analysis, YFP-TOP2A in HEK293F cells; format: cell-based; details: 0.25 and 1 μM
T1 construct: Using recombinant full-length human TOP2A and TOP2B enzymes; expressed in transfected cells; host or cells: HEK293F
Procedure: HEK293F cells were transfected with DNA plasmids encoding yellow-fluorescent protein (YFP)-TOP2A or YFP-TOP2B (the same DNA constructs for mammalian protein expression and purification) using Lipofectamine 2000 (Thermo Fisher Scientific). Cells were cultured for 24 h post transfection and YFP signals were confirmed prior to FRAP experiments. Transfected cells were plated on glass-bottomed culture dishes (Matsunami) and rested overnight. The next day, each dish was pre-incubated with the indicated inhibitor treatment or DMSO control for 15 min prior to FRAP experiment. Each set of experiments was repeated on at least two different days using newly transfected cells each time. Live-cell imaging was done using a LSM 980 microscope (Carl Zeiss Microscopy, LLC). YFP signal was excited at 508 nm at 2% laser power and detected through a 516–604 nm range. A small area within the nucleus (purple box) is manually selected for fluorescence bleaching at 100% laser power for 50 iterations. Inhibition of TOP2 by obex inhibitors was detected by impairment in fluorescence recovery at 15 s post bleaching, as a lack of inhibition allows for TOP2 diffusion throughout the nucleus.

[2] = iv, rabbit plasma, 10 mg/kg, 20 min i.v. infusion

T1 sequence (P11388 whole entry): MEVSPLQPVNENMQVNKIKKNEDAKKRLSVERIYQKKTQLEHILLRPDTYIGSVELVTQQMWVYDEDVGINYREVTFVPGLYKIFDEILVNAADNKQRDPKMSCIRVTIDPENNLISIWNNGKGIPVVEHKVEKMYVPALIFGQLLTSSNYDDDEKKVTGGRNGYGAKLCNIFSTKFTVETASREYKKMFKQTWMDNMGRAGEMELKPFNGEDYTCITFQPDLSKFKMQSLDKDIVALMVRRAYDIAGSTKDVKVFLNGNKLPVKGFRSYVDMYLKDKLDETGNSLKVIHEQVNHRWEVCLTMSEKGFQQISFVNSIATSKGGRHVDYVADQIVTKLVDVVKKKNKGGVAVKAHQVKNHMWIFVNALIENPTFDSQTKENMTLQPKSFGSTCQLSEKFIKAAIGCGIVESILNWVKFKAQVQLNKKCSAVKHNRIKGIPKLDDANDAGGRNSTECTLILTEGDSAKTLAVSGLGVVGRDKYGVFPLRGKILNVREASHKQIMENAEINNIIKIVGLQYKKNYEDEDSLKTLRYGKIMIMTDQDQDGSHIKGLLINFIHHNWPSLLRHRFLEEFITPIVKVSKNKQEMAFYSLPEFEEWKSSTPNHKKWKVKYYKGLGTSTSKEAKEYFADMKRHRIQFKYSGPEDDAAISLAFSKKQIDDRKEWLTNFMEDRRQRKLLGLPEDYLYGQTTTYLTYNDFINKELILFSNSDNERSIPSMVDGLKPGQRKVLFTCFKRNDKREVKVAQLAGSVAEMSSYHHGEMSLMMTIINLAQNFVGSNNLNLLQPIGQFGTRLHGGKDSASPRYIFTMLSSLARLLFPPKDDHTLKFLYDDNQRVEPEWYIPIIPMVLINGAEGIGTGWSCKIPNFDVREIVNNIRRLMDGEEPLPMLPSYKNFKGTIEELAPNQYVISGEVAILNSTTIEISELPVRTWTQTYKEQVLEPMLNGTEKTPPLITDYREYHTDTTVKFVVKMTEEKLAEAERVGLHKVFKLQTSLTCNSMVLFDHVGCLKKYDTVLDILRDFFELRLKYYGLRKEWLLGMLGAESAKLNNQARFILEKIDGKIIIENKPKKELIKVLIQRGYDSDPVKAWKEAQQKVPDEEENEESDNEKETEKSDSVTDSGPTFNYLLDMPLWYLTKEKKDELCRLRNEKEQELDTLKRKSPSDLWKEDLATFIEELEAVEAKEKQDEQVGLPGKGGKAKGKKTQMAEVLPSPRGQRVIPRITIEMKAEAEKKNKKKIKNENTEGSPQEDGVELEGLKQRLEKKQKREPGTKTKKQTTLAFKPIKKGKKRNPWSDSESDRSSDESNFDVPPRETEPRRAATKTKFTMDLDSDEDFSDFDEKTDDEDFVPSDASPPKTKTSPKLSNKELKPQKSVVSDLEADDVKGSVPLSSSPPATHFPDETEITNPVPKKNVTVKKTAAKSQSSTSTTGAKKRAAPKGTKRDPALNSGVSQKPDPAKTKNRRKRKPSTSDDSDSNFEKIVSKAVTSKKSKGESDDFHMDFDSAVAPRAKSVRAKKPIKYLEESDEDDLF

COc1cccc2c1C(=O)c1c(O)c3c(c(O)c1C2=O)C[C@@](O)(C(C)=O)C[C@@H]3O[C@H]1C[C@H](N)[C@H](O)[C@H](C)O1 [DAU, daunorubicin, reference compound]
γH2AX in LV myocardium (γH2AX; DAU 3 mg/kg alone, 1.5 h): 10.11 and 5.83 and 6.97 and 6.98 and 3.35 and 7.46

CCCc1cc(=O)oc2c(C(=O)N3CCCc4ccccc43)c(OCCN3CCN(C)CC3)ccc12 [topobexin (9)]
Plasma concentration ([1]; 10 min, individual subjects): 9.134 µM and 17.429 µM and 15.678 µM and 15.114 µM and 12.648 µM
Plasma concentration ([1]; 20 min, individual subjects): 11.689 µM and 11.373 µM and 12.322 µM and 16.573 µM and 12.398 µM
Plasma concentration ([1]; 40 min, individual subjects): 4.374 µM and 4.139 µM and 3.247 µM and 3.779 µM and 3.693 µM
Plasma concentration ([1]; 60 min, individual subjects): 1.755 µM and 3.643 µM and 3.122 µM and 2.610 µM and 3.293 µM and 2.847 µM
Plasma concentration ([1]; 120 min, individual subjects): 1.524 µM and 1.569 µM and 1.234 µM and 1.184 µM and 1.188 µM
Plasma concentration ([1]; 240 min, individual subjects): 0.456 µM and 0.440 µM and 0.629 µM and 0.503 µM and 0.425 µM
Plasma concentration ([1]; 360 min, individual subjects): 0.161 µM and 0.144 µM and 0.140 µM and 0.225 µM and 0.134 µM
Plasma concentration ([1]; 480 min, individual subjects): 0.110 µM and 0.051 µM and 0.053 µM and 0.103 µM and 0.049 µM
Plasma concentration ([1]; 600 min, individual subjects): 0.019 μM (2×) and 0.026 μM (2×) and 0.018 μM
Cmax [1, 2]: 13.5 ± 3.2 µM
Tmax [1, 2]: 10 min
concentrations present in rabbits during daunorubicin administration ([1]; plasma): ≤ 3 µM
Plasma concentration ([1]; rabbit, 10 mg/kg 20 min i.v. infusion, 5 min, individual subjects, 10 mg/kg): 7.668 µM and 14.456 µM and 10.833 µM and 11.650 µM and 11.714 µM
time with plasma concentration ≥ 1 μM ([1]; rabbit, 10 mg/kg, 20 min i.v. infusion): 2.5 h
concentration at 10 min ([1]; rabbit, plasma, intravenous, 10 mg/kg, 10 min, individual subjects): 10.8 µM
concentration at 20 min ([1]; rabbit, plasma, intravenous, 10 mg/kg, 20 min, individual subjects): 10.5 µM
concentration at 40 min ([1]; rabbit, plasma, intravenous, 10 mg/kg, 40 min, individual subjects): 3.47 µM
concentration at 120 min ([1]; rabbit, plasma, intravenous, 10 mg/kg, 120 min, individual subjects): 1.32 µM
concentration at 240 min ([1]; rabbit, plasma, intravenous, 10 mg/kg, 240 min, individual subjects): 0.429 µM
concentration at 360 min ([1]; rabbit, plasma, intravenous, 10 mg/kg, 360 min, individual subjects): 0.155 µM
concentration at 600 min ([1]; rabbit, plasma, intravenous, 10 mg/kg, 600 min, individual subjects): 0.025 µM
concentration at 5 min ([1]; rabbit, plasma, iv, 10 mg/kg, 10 mg/kg 20 min i.v. infusion, 5 min, individual subjects): 11.1 µM
DAU-induced DNA damage (γH2AX) in LV myocardium (γH2AX; 10 mg/kg before DAU 3 mg/kg, 1.5 h after DAU): effectively prevent induction of DNA damage
γH2AX in LV myocardium (γH2AX; Topobexin alone 10 mg/kg): 1.55 and 1.42 and 1.45 and 1.03 and 1.17 and 1.33
γH2AX in LV myocardium (γH2AX; Topobexin+DAU): 1.79 and 1.30 and 1.64 and 0.82 and 1.38 and 2.72
mobility of TOP2A (FRAP) (YFP-TOP2A): not affected
